Laboratory results as given in patent US8048927B2 (Besins Healthcare Luxembourg, priority 2004, dated 2011).

Assay: pharmacokinetics of 4-hydroxy tamoxifen gel in healthy premenopausal women (Example 3)
Type: in vivo, human
Conditions: for Plasma concentration of 4-hydroxy tamoxifen, Range: First cycle Day 1, 0 hr; for AUC0-24, Mean ± SD / Cav = AUC0-24/24, Mean ± SD / Cmax, Mean ± SD / tmax, Mean ± SD: last administration, day 25 of second cycle
Description: Each participant applied the gel daily for the duration of two menstrual cycles.
At the end of a menstrual cycle, each patient received a single dose, after which serial blood samples were collected at 0, 0.5, 1, 1.5, 2, 3, 4, 6, 12, 18, 24, 36, 48, and 72 hours.
On the first day of the following menstruation, treatment, which consisted of daily application of the gel over two menstrual cycles, began. Blood samples were collected 24 hours following the morning application of gel on days 7, 20 and 25 of the first and second cycles. On the last day of administration, day 25 of the second menstrual cycle, serial blood samples were collected prior to application and at 0.5, 1, 1.5, 2, 3, 4, 6, 12, 18, 24, 36, 48, and 72 hours after application of the gel.

Question: What does the source list for CCC(=C(c1ccc(O)cc1)c1ccc(OCCN(C)C)cc1)c1ccccc1 [4-hydroxy tamoxifen, 1-[4-(2-N-dimethylaminoethoxy)phenyl]-1-(4-hydroxyphenyl)-2-phenylbut-1-ene]?
Answer: Plasma concentration of 4-hydroxy tamoxifen, Range (0.5 mg/day, gel 20 mg/100 g): (0-17.2) pg/mL; Plasma concentration of 4-hydroxy tamoxifen, Mean ± SD (0.5 mg/day, gel 20 mg/100 g, First cycle Day 7, 24 hr after application): 0.0064 ± 0.0056 ng/mL; Plasma concentration of 4-hydroxy tamoxifen, Mean ± SD (0.5 mg/day, gel 20 mg/100 g, First cycle Day 20, 24 hr after application): 0.0136 ± 0.0079 ng/mL; Plasma concentration of 4-hydroxy tamoxifen, Mean ± SD (0.5 mg/day, gel 20 mg/100 g, First cycle Day 25, 24 hr after application): 0.0239 ± 0.0234 ng/mL; Plasma concentration of 4-hydroxy tamoxifen, Mean ± SD (0.5 mg/day, gel 20 mg/100 g, Second cycle Day 7, 24 hr after application): 0.0252 ± 0.0161 ng/mL; Plasma concentration of 4-hydroxy tamoxifen, Mean ± SD (0.5 mg/day, gel 20 mg/100 g, Second cycle Day 20, 24 hr after application): 0.0157 ± 0.014 ng/mL; Plasma concentration of 4-hydroxy tamoxifen, Mean ± SD (0.5 mg/day, gel 20 mg/100 g, Second cycle Day 25, 0 hr (24 hours after Day 24 application, prior to final application)): 0.0108 ± 0.0099 ng/mL; Plasma concentration of 4-hydroxy tamoxifen, Mean ± SD (0.5 mg/day, gel 20 mg/100 g, Second cycle Day 25, 0.5 hr after application): 0.0109 ± 0.0074 ng/mL; Plasma concentration of 4-hydroxy tamoxifen, Mean ± SD (0.5 mg/day, gel 20 mg/100 g, Second cycle Day 25, 1 hr after application): 0.0104 ± 0.0078 ng/mL; Plasma concentration of 4-hydroxy tamoxifen, Mean ± SD (0.5 mg/day, gel 20 mg/100 g, Second cycle Day 25, 1.5 hr after application): 0.009 ± 0.0082 ng/mL; Plasma concentration of 4-hydroxy tamoxifen, Mean ± SD (0.5 mg/day, gel 20 mg/100 g, Second cycle Day 25, 2 hr after application): 0.0118 ± 0.0095 ng/mL; Plasma concentration of 4-hydroxy tamoxifen, Mean ± SD (0.5 mg/day, gel 20 mg/100 g, Second cycle Day 25, 3 hr after application): 0.01 ± 0.0079 ng/mL; Plasma concentration of 4-hydroxy tamoxifen, Mean ± SD (0.5 mg/day, gel 20 mg/100 g, Second cycle Day 25, 4 hr after application): 0.0092 ± 0.0083 ng/mL; Plasma concentration of 4-hydroxy tamoxifen, Mean ± SD (0.5 mg/day, gel 20 mg/100 g, Second cycle Day 25, 6 hr after application): 0.0114 ± 0.0085 ng/mL; Plasma concentration of 4-hydroxy tamoxifen, Mean ± SD (0.5 mg/day, gel 20 mg/100 g, Second cycle Day 25, 12 hr after application): 0.011 ± 0.0097 ng/mL; Plasma concentration of 4-hydroxy tamoxifen, Mean ± SD (0.5 mg/day, gel 20 mg/100 g, Second cycle Day 25, 18 hr after application): 0.0097 ± 0.0088 ng/mL; Plasma concentration of 4-hydroxy tamoxifen, Mean ± SD (0.5 mg/day, gel 20 mg/100 g, Second cycle Day 26, 24 hr after last application): 0.0124 ± 0.0094 ng/mL; Plasma concentration of 4-hydroxy tamoxifen, Mean ± SD (0.5 mg/day, gel 20 mg/100 g, Second cycle Day 26, 36 hr after last application): 0.0109 ± 0.0069 ng/mL; Plasma concentration of 4-hydroxy tamoxifen, Mean ± SD (0.5 mg/day, gel 20 mg/100 g, Second cycle Day 27, 48 hr after last application): 0.0121 ± 0.0065 ng/mL; Plasma concentration of 4-hydroxy tamoxifen, Mean ± SD (0.5 mg/day, gel 20 mg/100 g, Second cycle Day 28, 72 hr after last application): 0.0099 ± 0.0071 ng/mL; Plasma concentration of 4-hydroxy tamoxifen (0.5 mg/day, gel 20 mg/100 g, after the second cycle, +8 days, LOQ <5 pg/mL): <LOQ; Plasma concentration of 4-hydroxy tamoxifen, maximum (0.5 mg/day, gel 20 mg/100 g, after the second cycle, +12 days): (maximum 9.09) pg/mL; Plasma concentration of 4-hydroxy tamoxifen (0.5 mg/day, gel 20 mg/100 g, after the second cycle, +20 days): 0 ng/mL; AUC0-24, Mean ± SD (0.5 mg/day, gel 20 mg/100 g): 0.2563 ± 0.2053 ng·h/mL; Cav = AUC0-24/24, Mean ± SD (0.5 mg/day, gel 20 mg/100 g): 0.0107 ± 0.0085 ng/mL; Cmax, Mean ± SD (0.5 mg/day, gel 20 mg/100 g): 0.017 ± 0.0085 ng/mL; tmax, Mean ± SD (0.5 mg/day, gel 20 mg/100 g): 40 ± 81 h; Plasma concentration of 4-hydroxy tamoxifen, Range (1 mg/day, gel 20 mg/100 g): (0-13.9) pg/mL; Plasma concentration of 4-hydroxy tamoxifen, Mean ± SD (1 mg/day, gel 20 mg/100 g, First cycle Day 7, 24 hr after application): 0.0152 ± 0.0097 ng/mL; Plasma concentration of 4-hydroxy tamoxifen, Mean ± SD (1 mg/day, gel 20 mg/100 g, First cycle Day 20, 24 hr after application): 0.0173 ± 0.0095 ng/mL; Plasma concentration of 4-hydroxy tamoxifen, Mean ± SD (1 mg/day, gel 20 mg/100 g, First cycle Day 25, 24 hr after application): 0.0155 ± 0.0066 ng/mL; Plasma concentration of 4-hydroxy tamoxifen, Mean ± SD (1 mg/day, gel 20 mg/100 g, Second cycle Day 7, 24 hr after application): 0.0174 ± 0.0112 ng/mL; Plasma concentration of 4-hydroxy tamoxifen, Mean ± SD (1 mg/day, gel 20 mg/100 g, Second cycle Day 20, 24 hr after application): 0.0148 ± 0.0065 ng/mL; Plasma concentration of 4-hydroxy tamoxifen, Mean ± SD (1 mg/day, gel 20 mg/100 g, Second cycle Day 25, 0 hr (24 hours after Day 24 application, prior to final application)): 0.0157 ± 0.0171 ng/mL; Plasma concentration of 4-hydroxy tamoxifen, Mean ± SD (1 mg/day, gel 20 mg/100 g, Second cycle Day 25, 0.5 hr after application): 0.0135 ± 0.0091 ng/mL; Plasma concentration of 4-hydroxy tamoxifen, Mean ± SD (1 mg/day, gel 20 mg/100 g, Second cycle Day 25, 1 hr after application): 0.0108 ± 0.0066 ng/mL; Plasma concentration of 4-hydroxy tamoxifen, Mean ± SD (1 mg/day, gel 20 mg/100 g, Second cycle Day 25, 1.5 hr after application): 0.0118 ± 0.008 ng/mL; Plasma concentration of 4-hydroxy tamoxifen, Mean ± SD (1 mg/day, gel 20 mg/100 g, Second cycle Day 25, 2 hr after application): 0.0107 ± 0.0069 ng/mL; Plasma concentration of 4-hydroxy tamoxifen, Mean ± SD (1 mg/day, gel 20 mg/100 g, Second cycle Day 25, 3 hr after application): 0.0114 ± 0.0079 ng/mL; Plasma concentration of 4-hydroxy tamoxifen, Mean ± SD (1 mg/day, gel 20 mg/100 g, Second cycle Day 25, 4 hr after application): 0.0112 ± 0.0073 ng/mL; Plasma concentration of 4-hydroxy tamoxifen, Mean ± SD (1 mg/day, gel 20 mg/100 g, Second cycle Day 25, 6 hr after application): 0.0107 ± 0.0064 ng/mL; Plasma concentration of 4-hydroxy tamoxifen, Mean ± SD (1 mg/day, gel 20 mg/100 g, Second cycle Day 25, 12 hr after application): 0.0118 ± 0.0078 ng/mL; Plasma concentration of 4-hydroxy tamoxifen, Mean ± SD (1 mg/day, gel 20 mg/100 g, Second cycle Day 25, 18 hr after application): 0.0122 ± 0.0083 ng/mL; Plasma concentration of 4-hydroxy tamoxifen, Mean ± SD (1 mg/day, gel 20 mg/100 g, Second cycle Day 26, 24 hr after last application): 0.0186 ± 0.0142 ng/mL; Plasma concentration of 4-hydroxy tamoxifen, Mean ± SD (1 mg/day, gel 20 mg/100 g, Second cycle Day 26, 36 hr after last application): 0.0134 ± 0.0075 ng/mL; Plasma concentration of 4-hydroxy tamoxifen, Mean ± SD (1 mg/day, gel 20 mg/100 g, Second cycle Day 27, 48 hr after last application): 0.0125 ± 0.006 ng/mL; Plasma concentration of 4-hydroxy tamoxifen, Mean ± SD (1 mg/day, gel 20 mg/100 g, Second cycle Day 28, 72 hr after last application): 0.0099 ± 0.0058 ng/mL; T(1stC < LOQ), first timepoint at which the plasma concentration was below the limit of quantification, Mean ± SD (1 mg/day, gel 20 mg/100 g, after last administration): 274 ± 141 h; Plasma concentration of 4-hydroxy tamoxifen, Mean ± SD (1 mg/day, gel 20 mg/100 g, after the second cycle, +5 days): 0.0058 ± 0.0052 ng/mL; Plasma concentration of 4-hydroxy tamoxifen (1 mg/day, gel 20 mg/100 g, after the second cycle, +20 days, LOQ <5 pg/mL): <LOQ; AUC0-24, Mean ± SD (1 mg/day, gel 20 mg/100 g): 0.3009 ± 0.1908 ng·h/mL; Cav = AUC0-24/24, Mean ± SD (1 mg/day, gel 20 mg/100 g): 0.0125 ± 0.0079 ng/mL; Cmax, Mean ± SD (1 mg/day, gel 20 mg/100 g): 0.021 ± 0.004 ng/mL; tmax, Mean ± SD (1 mg/day, gel 20 mg/100 g): 24 ± 18 h; Plasma concentration of 4-hydroxy tamoxifen, Range (1 mg/day, gel 57 mg/100 g): (0-9.5) pg/mL; Plasma concentration of 4-hydroxy tamoxifen, Mean ± SD (1 mg/day, gel 57 mg/100 g, First cycle Day 7, 24 hr after application): 0.0144 ± 0.0131 ng/mL; Plasma concentration of 4-hydroxy tamoxifen, Mean ± SD (1 mg/day, gel 57 mg/100 g, First cycle Day 20, 24 hr after application): 0.0181 ± 0.0158 ng/mL; Plasma concentration of 4-hydroxy tamoxifen, Mean ± SD (1 mg/day, gel 57 mg/100 g, First cycle Day 25, 24 hr after application): 0.0198 ± 0.0162 ng/mL; Plasma concentration of 4-hydroxy tamoxifen, Mean ± SD (1 mg/day, gel 57 mg/100 g, Second cycle Day 7, 24 hr after application): 0.0222 ± 0.0164 ng/mL; Plasma concentration of 4-hydroxy tamoxifen, Mean ± SD (1 mg/day, gel 57 mg/100 g, Second cycle Day 20, 24 hr after application): 0.0244 ± 0.0201 ng/mL; Plasma concentration of 4-hydroxy tamoxifen, Mean ± SD (1 mg/day, gel 57 mg/100 g, Second cycle Day 25, 0 hr (24 hours after Day 24 application, prior to final application)): 0.0272 ± 0.0208 ng/mL; Plasma concentration of 4-hydroxy tamoxifen, Mean ± SD (1 mg/day, gel 57 mg/100 g, Second cycle Day 25, 0.5 hr after application): 0.0259 ± 0.0187 ng/mL; Plasma concentration of 4-hydroxy tamoxifen, Mean ± SD (1 mg/day, gel 57 mg/100 g, Second cycle Day 25, 1 hr after application): 0.0287 ± 0.0195 ng/mL
